{"source": "patent US12410155B2", "about": "“Salt form and crystal form of tetrahydrocyclohepta indazole compound” (Zhejiang Yangli Pharmaceutical Technology Co., Ltd., priority 2021, dated 2025)", "key": {"[1]": {"target": "T1, Estrogen receptor α (ERα) (Homo sapiens, UniProt P03372)", "T1 construct": "host or cells: insect Sf9 cells", "T1 sequence (P03372 1-595)": "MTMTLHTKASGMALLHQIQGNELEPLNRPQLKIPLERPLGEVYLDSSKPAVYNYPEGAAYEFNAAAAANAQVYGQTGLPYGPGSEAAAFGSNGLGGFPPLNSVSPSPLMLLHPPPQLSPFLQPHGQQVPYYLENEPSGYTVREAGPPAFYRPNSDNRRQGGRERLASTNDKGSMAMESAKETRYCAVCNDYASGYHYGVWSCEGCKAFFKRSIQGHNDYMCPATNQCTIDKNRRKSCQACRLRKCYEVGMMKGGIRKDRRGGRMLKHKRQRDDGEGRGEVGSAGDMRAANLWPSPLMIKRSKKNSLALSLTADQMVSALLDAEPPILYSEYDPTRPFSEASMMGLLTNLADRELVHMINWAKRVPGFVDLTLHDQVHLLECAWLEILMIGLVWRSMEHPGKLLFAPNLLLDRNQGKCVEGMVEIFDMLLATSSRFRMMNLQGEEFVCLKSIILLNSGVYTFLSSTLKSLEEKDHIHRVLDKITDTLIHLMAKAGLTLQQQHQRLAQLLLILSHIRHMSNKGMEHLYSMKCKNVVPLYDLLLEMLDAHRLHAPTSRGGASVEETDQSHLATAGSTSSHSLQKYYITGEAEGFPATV", "test": "ERα binding assay (radioactive ligand binding)", "experimental": "(1) ERα Binding Assay: Assessment of the Activity of the Compound of Formula (I) Via Radioactive Ligand Binding Assay\nThe method employed in this study was adopted from scientific literature (Obourn, J. D. et al., Biochemistry, 1993, 32, 6229-6236).\nThe IC50 values were obtained using MathIQ™ software (ID Business Solutions Ltd., UK) employing a nonlinear, least-squares regression method. The presented inhibition constant (Ki) was calculated using the Cheng and Prusoff equation (Cheng, Y., Prusoff, W. H., Biochem. Pharmacol. 22:3099-3108, 1973) based on the experimentally determined IC50 of the test compound, the concentration of the radioactive ligand used in the assay, and the historical value of the ligand's KD (determined experimentally by Eurofins Panlabs, Inc.). As shown, the Hill coefficient (nH), which defines the slope of the competitive binding curve, was calculated using MathIQ™."}, "ERα": {"target": "T2, ERα (Homo sapiens, UniProt P03372)", "T2 sequence (P03372 311-547 limits assumed)": "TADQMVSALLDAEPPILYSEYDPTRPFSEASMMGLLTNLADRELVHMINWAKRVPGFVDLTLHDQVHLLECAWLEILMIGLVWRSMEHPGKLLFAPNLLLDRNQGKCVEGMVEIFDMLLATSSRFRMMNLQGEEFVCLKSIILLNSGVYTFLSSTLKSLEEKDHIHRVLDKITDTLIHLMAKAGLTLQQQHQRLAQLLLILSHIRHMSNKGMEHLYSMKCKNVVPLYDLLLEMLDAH", "test": "HEK293/GAL4/ERα antagonist assay (luciferase reporter)", "type": "cell-based", "conditions": "1 nM estradiol, read-out: IC50 (nM), antagonistic effect", "experimental": "(2) HEK293/GAL4/ERα Antagonist Assay\nDMEM (without phenol red) containing 10% charcoal-stripped serum (i.e., 450 mL DMEM and 50 mL charcoal-stripped serum in 500 mL medium)\nThe antagonistic effect of the compound of formula (I) on ERα, was analyzed using triplicate wells with compound concentration ranging from 200 nM to 0.00256 nM.\n• 1) The HEK293/GAL4/ERα cell suspension was collected and centrifuged at 1000 rpm for 5 minutes. The supernatant was discarded, and the cells were resuspended in pre-warmed experimental medium. After counting, the cell suspension was diluted with experimental medium. 40000 cells per well were seeded into a 96-well cell culture plate, with 80 μL of cell suspension per well. […] Subsequently, 10 μL of assay medium containing 10 nM estradiol was added to each well. For blank controls, 10 μL of assay medium was added. A final estradiol concentration of 1 nM was ensured. […] The plate was incubated at 25° C. for 2 minutes. After incubation, the luminescence signal was then detected using an EnVision plate reader. Data Analysis:\nGraphPad Prism software was used to plot the data and calculate the IC50 values for the compound."}}, "note": "Where two headings read alike, the source gives them in different places.", "data": [{"smiles": "FCCCN1CC[C@H](Nc2cnc(C3=C(CC(F)(F)F)CCCc4c3ccc3[nH]nc(F)c43)cn2)C1", "note": "[Compound of formula (I)]", "values": [{"measurement": "nH (Hill coefficient)", "setting": "[1]", "value": 1.22}, {"measurement": "IC50", "setting": "[1]; 0.5 nM [3H] estradiol", "value": 360, "unit": "pM"}, {"measurement": "Ki", "setting": "[1]; Cheng and Prusoff equation", "value": 100, "unit": "pM"}, {"measurement": "inhibition at 12.8 pM", "setting": "[1]; concentration 12.8 pM, read-out: Inhibition rate (%)", "value": -4, "unit": "%"}, {"measurement": "inhibition at 64 pM", "setting": "[1]; concentration 0.064 nM, read-out: Inhibition rate (%)", "value": 9, "unit": "%"}, {"measurement": "inhibition at 0.00032 µM", "setting": "[1]; concentration 0.32 nM, read-out: Inhibition rate (%)", "value": 48, "unit": "%"}, {"measurement": "inhibition at 0.0016 µM", "setting": "[1]; concentration 1.6 nM, read-out: Inhibition rate (%)", "value": 84, "unit": "%"}, {"measurement": "inhibition at 0.008 µM", "setting": "[1]; concentration 8 nM, read-out: Inhibition rate (%)", "value": 97, "unit": "%"}, {"measurement": "inhibition at 0.04 µM", "setting": "[1]; concentration 0.04 μM, read-out: Inhibition rate (%)", "value": 98, "unit": "%"}, {"measurement": "inhibition at 0.2 µM", "setting": "[1]; concentration 0.2 μM, read-out: Inhibition rate (%)", "value": 97, "unit": "%"}, {"measurement": "inhibition at 1 µM", "setting": "[1]; concentration 1 μM, read-out: Inhibition rate (%)", "value": 97, "unit": "%"}, {"measurement": "IC50", "setting": "ERα; Mean ± SD", "value": "0.0857 ± 0.0103", "unit": "nM"}, {"measurement": "IC50", "setting": "ERα; N = 1", "value": 0.096, "unit": "nM"}, {"measurement": "IC50", "setting": "ERα; N = 2", "value": 0.075, "unit": "nM"}]}]}
